According to ChEMBL document CHEMBL2375321, “Discovery of 3,3'-diindolylmethanes as potent antileishmanial agents” (Eur J Med Chem, 2013):
≈ marks a conversion by molar mass, not a printed value. Calls of active or inactive are those of the source. Unless noted, the rule behind the calls is not given here.

Legend:
[1] = system: Mycobacterium intracellulare; assay: Antibacterial activity against Mycobacterium intracellulare ATCC 23068 by alamar blue assay; assay type: functional, organism-based
[2] = system: Leishmania donovani; assay: Antileishmanial activity against axenic amastigote of Leishmania donovani after 72 hrs by alamar blue assay; assay type: functional, organism-based
[3] = system: Staphylococcus aureus; assay: Antibacterial activity against methicillin-resistant Staphylococcus aureus ATCC 33591 by CLSI method; assay type: functional, organism-based; details: for IC50: Staphylococcus aureus, ATCC 33591, read-out: IC50
[4] = system: Leishmania donovani; assay: Antileishmanial activity against promastigote of Leishmania donovani after 72 hrs by alamar blue assay; assay type: functional, organism-based
[5] = system: Staphylococcus aureus; assay: Antibacterial activity against Staphylococcus aureus ATCC 29213 by CLSI method; assay type: functional, organism-based
[6] = system: Vero; assay: Cytotoxicity against african green monkey Vero cells up to 4.6 ug/ml after 48 hrs by neutral red assay; assay type: cell-based; details: chlorocebus sabaeus
[7] = system: Candida albicans; assay: Antifungal activity against Candida albicans ATCC 90028 by CLSI method; assay type: functional, organism-based
[8] = system: Aspergillus fumigatus; assay: Antifungal activity against Aspergillus fumigatus ATCC 204305 by CLSI method; assay type: functional, organism-based
[9] = system: Cryptococcus neoformans; assay: Antifungal activity against Cryptococcus neoformans ATCC 90113 by CLSI method; assay type: functional, organism-based
[10] = Leishmania donovani, 72 h, read-out: IC50
[11] = Mycobacterium intracellulare, ATCC 23068
[12] = Mycobacterium intracellulare, ATCC 23068, read-out: IC50

Structure (SMILES)	IC90 [2]	Activity [6]	IC90 ([2]; Leishmania donovani, 72 h) [µM]	IC50 [2, 10] [µM]	IC90 ([4]; Leishmania donovani, 72 h) [µM]	IC50 [4, 10] [µM]	further results
COc1ccc2[nH]cc(C(c3c(Cl)cccc3Cl)c3c[nH]c4ccc(OC)cc34)c2c1	inactive	Non-toxic	–	–	–	–	IC50 [1]: Not Active; MBC [1]: inactive; MIC [1]: inactive; IC50 [2]: Not Active; MBC [3]: inactive; MIC [3]: inactive; IC50 [3]: 17.2 µM; IC50 [4]: Not Active; IC90 [4]: inactive; IC50 [5]: 7.51 µM; MBC [5]: inactive; MIC [5]: inactive
Brc1ccc(C(c2c[nH]c3ccc(I)cc23)c2c[nH]c3ccc(I)cc23)cc1	–	Non-toxic	46.6	13.1	8.47	4.49	Activity [7]: inactive; Activity [8]: inactive; IC50 [9]: 5.58 µM; MFC [9]: 30.7 µM (≈ 20 µg/mL); MIC [9]: 30.7 µM (≈ 20 µg/mL)
COc1ccc2[nH]cc(C(c3c4ccccc4cc4ccccc34)c3c[nH]c4ccc(OC)cc34)c2c1	inactive	Non-toxic	–	39.8	64.9	34.6	–
N=C(N)c1ccc(OCCCCCOc2ccc(C(=N)N)cc2)cc1 [PENTAMIDINE]	–	–	14.3	–	6.21	3.29	–
COc1ccc2[nH]cc(C(c3ccc([N+](=O)[O-])o3)c3c[nH]c4ccc(OC)cc34)c2c1	inactive	Non-toxic	–	–	60	37.3	IC50 [2]: Not Active
COc1ccc2[nH]cc(C(c3ccc([N+](=O)[O-])cc3)c3c[nH]c4ccc(OC)cc34)c2c1	–	Non-toxic	64.2	14.7	18.8	12.1	–
Ic1ccc2[nH]cc(C(c3c4ccccc4cc4ccccc34)c3c[nH]c4ccc(I)cc34)c2c1	inactive	Non-toxic	–	–	–	–	IC50 [2]: Not Active; IC50 [4]: Not Active; IC90 [4]: inactive
COc1ccc2[nH]cc(C(c3ccc(O)cc3)c3c[nH]c4ccc(OC)cc34)c2c1	–	Non-toxic	76.3	42.9	91	81.1	–
c1ccc2c(C(c3c[nH]c4ccccc34)c3c[nH]c4ccccc34)c3ccccc3cc2c1	inactive	Non-toxic	–	53.4	91.9	82	–
O=[N+]([O-])c1ccc(C(c2c[nH]c3ccc(I)cc23)c2c[nH]c3ccc(I)cc23)cc1	–	Non-toxic	38.4	8.37	10.2	7.88	–
COc1ccc2[nH]cc(C(c3ccc(F)c(Br)c3)c3c[nH]c4ccc(OC)cc34)c2c1	–	Non-toxic	66.8	47.6	46.6	15.8	MBC [1]: inactive; MIC [1, 11]: 41.8 µM (≈ 20 µg/mL); IC50 [1, 12]: 39.6 µM; MBC [3]: inactive; MIC [3]: inactive; IC50 [3]: 4.67 µM; IC50 [5]: 3.45 µM; MBC [5]: inactive; MIC [5]: 10.5 µM (≈ 5.03 µg/mL)
Fc1ccc(C(c2c[nH]c3ccc(I)cc23)c2c[nH]c3ccc(I)cc23)cc1Br	–	Non-toxic	31.4	18.2	18.2	9.84	Activity [7]: inactive; Activity [8]: inactive; IC50 [9]: 16.8 µM; MFC [9]: 29.9 µM (≈ 20 µg/mL); MIC [9]: 29.9 µM (≈ 20 µg/mL)
Fc1cc(F)cc(C(c2c[nH]c3ccc(I)cc23)c2c[nH]c3ccc(I)cc23)c1	–	Non-toxic	44.5	23.2	41.2	24.2	–
O=C(O)c1cn(C2CC2)c2cc(N3CCNCC3)c(F)cc2c1=O [CIPROFLOXACIN]	–	–	–	–	–	–	MBC [1, 11]: 3.02 µM (≈ 1 µg/mL); IC50 [1, 12]: 1 µM
